Source: US20210251883A1, “METHOD FOR PREPARING ENZYME-TREATED ZIZANIA LATIFOLIA TURCZ. EXTRACT HAVING INCREASED TRICIN CONTENT, AND COMPOSITION FOR WHITENING, WRINKLE REDUCTION, ANTI-INFLAMMATION, ANTI-ALLERGY AND MOISTURIZATION, PREPARED THEREBY” (BTC CORPORATION, priority 2018, published 2021)

Tests used:
[1] = tested on: CCD-986sk fibroblast cells, human dermal fibroblasts (HDF); assay: procollagen type I C-peptide EIA, collagen synthesis in fibroblasts; type: cell-based; details: concentration series of single substance
Protocol: The anti-wrinkle effect of the Zizania latifolia Turcz. extract prepared in Preliminary Experiments 2 to 4 was confirmed. First, human-derived CCD-986sk fibroblast cells were distributed from Korea Culture Tissue Collection (KCTC, Korea), and human dermal fibroblasts (HDF) were distributed from Seorin Bio. In addition, CCD-986sk fibroblasts were subcultured 2 to 3 times in an incubator at 37° C. in the presence of 5% CO2 using IMDM medium (ATCC, ATCC 30-2005, USA) supplemented with 10% FBS and 1% antibiotics (penicillin/streptomycin) and used. […]
Second, procollagen and MMP families (MMP-1, 2, 3, 9, 13) are factors that are discharged to the outside of the cell culture solution, and the cell culture solution reacted with the sample was collected and used. […] (standard sample), procollagen type I C-peptide EIA kit manufactured by Takara was used, the quantification curve was measured using PIP to calculate the amount of collagen synthesis for each sample. In addition, by measuring the inhibitory ability of metalloproteinase-1 (MMP-1), MMP-2, MMP-3, MMP-9, and […], which are factors affecting wrinkles, Zizania latifolia Turcz. enzyme treatment (standard sample) and tricin were evaluated for wrinkle improvement effect. The inhibitory ability of MMP-1, 2, 3, 9, 13 was measured using a product manufactured by Abcam.

[2] = tested on: RAW264.7 cells; assay: NO assay in lipopolysaccharide-induced macrophage cell line RAW264.7; type: cell-based; details: concentration series of single substance; versus LPS
Protocol: The production of NO was confirmed through the NO assay, and the specific process was as follows: The macrophage cell line RAW264.7 was distributed from the Korea Cell Line Bank (KCLB, Seoul, Korea), and using DMEM medium (Welgene, Gyeongsan, Korea) to which 10% FBS and 1% antibiotics (penicillin/streptomycin) were added, the cells were subcultured 2 to 3 times in an incubator at 37° C. in the presence of 5% CO2 and used.
RAW264.7 cells were dispensed into a 96-well plate at […] and pre-cultured in a 5% CO2 incubator for 20 to 24 hours, and each extract sample was treated and cultured for 24 hours. […] After the reaction was completed, optical density (O.D) was measured with an ELISA reader at a wavelength of 540 nm. At this time, the measured O.D was expressed as a percentage (%) compared with the O.D value in the cells to which lipopolysaccharide was added.
Second, NO assay was performed to measure the anti-inflammatory effect of the Zizania latifolia Turcz. extract and tricin using RAW264.7. […] After the reaction was completed, optical density (O.D) was measured with an ELISA reader at a wavelength of 540 nm. At this time, the measured O.D was expressed as a percentage (%) compared with the O.D value in the cells to which lipopolysaccharide was added. […]

[3] = tested on: B16-F0 cells; assay: inhibition of melanin production in melanin cell line B16-F0 (α-MSH/IBMX stimulated); type: cell-based, mouse; details: concentration series of single substance
Protocol: The whitening effect of the Zizania latifolia Turcz. extract prepared in the above Preliminary Experiments 2 to 4 was confirmed. First, mouse-derived melanin cell line B16-F0 cells were distributed from the American Type Culture Collection (ATCC, USA), and using DMEM medium (ATCC, ATCC 30-2002, USA) to which 10% FBS and 1% antibiotics (penicillin/streptomycin) were added, the cells were subcultured 2 to 3 times in an incubator at 37° C. in the presence of 5% CO2 and used.
Second, the ability of the Zizania latifolia Turcz. extract and tricin to inhibit melanin production in the mouse-derived melanin cell line B16-F0 was measured. B16-F0 cells were dispensed into a 6-well plate at 5×10^5 cells/well and pre-cultured in a 5% CO2 incubator for 20 to 24 hours, and then each extract sample was treated and cultured for 48 hours. […]
The melanoma cells adhered to the surface of the 6-well plate were removed from the cultured cells, dispensed into a 1.5 mL tube, and centrifuged at 13,000 rpm for 10 minutes using a centrifuge maintained at 4° C. […] After reacting for 1 hour in an oven at 60° C., 100 μL was dispensed to each well in a 96-well plate and O.D was measured with an ELISA reader (405 nm). […]

[4] = tested on: RBL-2H3 cells; assay: β-hexosaminidase release in IgE/antigen-stimulated RBL-2H3 cells; type: cell-based, rat; details: concentration series of single substance; versus DNP-HSA
Protocol: The anti-allergic efficacy of the Zizania latifolia Turcz. extract prepared in the above Preliminary Experiments 2 to 4 was confirmed. First, RBL-2H3 cells, a rat basophilic leukemia cell line, were purchased from Korea Cell Line Bank (KCLB, Seoul, Korea). RBL-2H3 cells were cultured in MEM (Gibco BRL, NY, USA) medium containing 10% FBS and 1% penicillin/streptomycin in an incubator at 37° C. and 5% CO2.
Second, the inhibitory effect of the extract on the release of β-hexosaminidase was confirmed in RBL-2H3 cells. RBL-2H3 cells were dispensed into a 24-well plate at 2×10^5 cells per well and stimulated with anti-DNP IgE (450 ng/mL) overnight at 37° C. […] Then, the reaction was stopped by immersing in an ice water bath for 10 minutes. 25 μL of the supernatant was transferred to a 96-well plate and 25 μL of 0.1 M citrate buffer (pH 4.5) in which the substrate (1 mM p-nitrophenyl-nacetyl-β-D-glucosaminide) is dissolved, was added and reacted at 37° C. for 1 hour. Thereafter, 200 μL of a stop solution (0.1 M Na2CO3/NaHCO3, pH 10.0) was added to stop the reaction, and the absorbance was measured at 405 nm using a microplate reader.

[5] = tested on: SKH-1 hairless mouse; assay: UVB-irradiated wrinkle-induced SKH-1 hairless mouse animal experiment; type: in vivo
Source text: The anti-wrinkle improvement and moisturizing effects were confirmed through animal experiments for the enzyme-treated extract of Zizania latifolia Turcz. prepared in the above Example 1. For the experiment, biochemical analysis equipment (Roche Ltd, Basel, Switzerland), glass teflon homogenizer (Chang shin scientific Co., Korea), microplate reader (Bio-TEK, USA), protein quantification equipment (Chemi-Doc; BIORAD, USA), a centrifuge (Hanil FLETA5, Korea), a water bath (Thermo minder taitec, Japan), and a deep freezer (Sanyo, Japan) were used. In addition, glass Teflon homogenizer (Daihan Scientific Group, Korea), UV-spectrophotometer (Shimadzu UV-1201, Japan), high-speed centrifuge (Hanil HMR-1610V, Korea), medical freezer (Sanyo, Japan)), a microplate reader (Bio-TEK), and protein quantification equipment (Chemi-Doc; BIORAD) were used. […]
First, the body weight of each animal was measured to observe the change in body weight. […]

COc1cc(-c2cc(=O)c3c(O)cc(O)cc3o2)cc(OC)c1O [tricin, Tricin]
collagen generation according to the concentration (FIG. 11) [1]: increased in a concentration-dependent manner | NO generation according to the concentration (FIG. 7) [2]: decreased in a concentration-dependent manner | melanin generation according to the concentration (FIG. 9) [3]: decreased in a concentration-dependent manner | β-hexosaminidase release rate according to the concentration (FIG. 13) [4]: decreased in a concentration-dependent manner | moisture of the skin surface ([5]; T group, 0.3 mg/kg oral, 14 weeks, UVB, FIG. 16): maintained | SILFLO microscopic observation of wrinkles versus group C ([5]; group T, tricin 2 mg/kg as printed, until the 8th week of UVB irradiation): wrinkles were relatively less formed compared to group C
